Assay results as given in publication PMC12586182 (Frontiers in Oncology, 2025).

Key:
PDGFRβ = biological target: T1, PDGFRβ (Homo sapiens, UniProt P09619); test: Kinase panel profiling at 1 µmol/L (mobility shift assay, Carna); format: biochemical; details: 1 µmol/L of BTK inhibitor
T1 construct: purchased Carna Biosciences

IGF1R = biological target: T2, IGF1R (Homo sapiens, UniProt P08069); test: as above; format: biochemical; details: 1 µmol/L of BTK inhibitor
T2 construct: purchased Carna Biosciences

IKKβ = biological target: T3, IKKβ (Homo sapiens, UniProt O14920); test: as above; format: biochemical; details: 1 µmol/L of BTK inhibitor
T3 construct: purchased Carna Biosciences
T3 sequence (O14920 1-756): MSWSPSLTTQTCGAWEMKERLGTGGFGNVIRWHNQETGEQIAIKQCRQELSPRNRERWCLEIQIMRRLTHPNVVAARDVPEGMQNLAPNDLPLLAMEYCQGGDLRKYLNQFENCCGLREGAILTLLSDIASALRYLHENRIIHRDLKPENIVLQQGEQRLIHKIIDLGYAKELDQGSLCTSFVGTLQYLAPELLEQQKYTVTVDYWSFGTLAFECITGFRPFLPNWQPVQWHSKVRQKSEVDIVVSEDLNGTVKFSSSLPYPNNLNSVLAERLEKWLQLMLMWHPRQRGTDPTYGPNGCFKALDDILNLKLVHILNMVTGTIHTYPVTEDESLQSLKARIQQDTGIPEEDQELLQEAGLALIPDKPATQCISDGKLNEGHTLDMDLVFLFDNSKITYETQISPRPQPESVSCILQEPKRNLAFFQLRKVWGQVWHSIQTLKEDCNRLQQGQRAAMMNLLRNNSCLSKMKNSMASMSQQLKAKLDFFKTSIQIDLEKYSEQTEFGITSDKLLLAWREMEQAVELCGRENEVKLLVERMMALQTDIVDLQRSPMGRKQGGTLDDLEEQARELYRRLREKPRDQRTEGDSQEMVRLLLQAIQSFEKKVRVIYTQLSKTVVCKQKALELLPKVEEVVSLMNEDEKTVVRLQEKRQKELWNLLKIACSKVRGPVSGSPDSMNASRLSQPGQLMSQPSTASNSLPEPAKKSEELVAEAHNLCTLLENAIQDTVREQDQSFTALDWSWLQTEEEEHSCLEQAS

ERK1 = ERK1 (Homo sapiens, UniProt P27361); test: Kinase enzyme activity assay (mobility shift assay, Carna); details: for Percentage inhibition of kinase enzyme activity: Erk1, 1 µmol/L of BTK inhibitor
JNK3 = biological target: T4, JNK3 (Homo sapiens, UniProt P53779); test: Kinase panel profiling at 1 µmol/L (mobility shift assay, Carna); format: biochemical; details: 1 µmol/L of BTK inhibitor
T4 construct: purchased Carna Biosciences

PBK = biological target: T5, PBK (Homo sapiens, UniProt Q96KB5); test: as above; format: biochemical; details: 1 µmol/L of BTK inhibitor
T5 construct: purchased Carna Biosciences
T5 sequence (Q96KB5 1-322): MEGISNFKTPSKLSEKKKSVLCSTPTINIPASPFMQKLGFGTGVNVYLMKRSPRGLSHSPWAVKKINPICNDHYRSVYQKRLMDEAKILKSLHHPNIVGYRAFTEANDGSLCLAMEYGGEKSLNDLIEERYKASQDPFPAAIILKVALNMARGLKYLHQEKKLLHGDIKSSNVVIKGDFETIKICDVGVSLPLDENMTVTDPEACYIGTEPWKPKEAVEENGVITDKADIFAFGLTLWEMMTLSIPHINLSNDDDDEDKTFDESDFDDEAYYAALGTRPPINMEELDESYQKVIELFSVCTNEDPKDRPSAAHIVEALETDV

PHKG1 = biological target: T6, PHKG1 (Homo sapiens, UniProt Q16816); test: as above; format: biochemical; details: 1 µmol/L of BTK inhibitor
T6 construct: purchased Carna Biosciences

p38β = biological target: T7, p38β (Homo sapiens, UniProt Q15759); test: as above; format: biochemical; details: 1 µmol/L of BTK inhibitor
T7 construct: purchased Carna Biosciences

skMLCK = biological target: T8, skMLCK (Homo sapiens, UniProt Q9H1R3); test: as above; format: biochemical; details: 1 µmol/L of BTK inhibitor
T8 construct: purchased Carna Biosciences

CK1ε = biological target: T9, CK1ε (Homo sapiens, UniProt P49674); test: as above; format: biochemical; details: 1 µmol/L of BTK inhibitor
T9 construct: purchased Carna Biosciences

TSSK3 = biological target: T10, TSSK3 (Homo sapiens, UniProt Q96PN8); test: as above; format: biochemical; details: 1 µmol/L of BTK inhibitor
T10 construct: purchased Carna Biosciences
T10 sequence (Q96PN8 1-268): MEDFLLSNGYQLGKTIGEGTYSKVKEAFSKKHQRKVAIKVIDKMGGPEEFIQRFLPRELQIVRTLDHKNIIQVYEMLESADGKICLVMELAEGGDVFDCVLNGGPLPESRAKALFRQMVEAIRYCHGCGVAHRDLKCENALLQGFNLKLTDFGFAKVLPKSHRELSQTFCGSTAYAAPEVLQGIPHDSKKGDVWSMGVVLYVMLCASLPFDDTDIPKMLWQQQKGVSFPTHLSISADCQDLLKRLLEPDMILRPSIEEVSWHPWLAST

T8 sequence (Q9H1R3 whole entry): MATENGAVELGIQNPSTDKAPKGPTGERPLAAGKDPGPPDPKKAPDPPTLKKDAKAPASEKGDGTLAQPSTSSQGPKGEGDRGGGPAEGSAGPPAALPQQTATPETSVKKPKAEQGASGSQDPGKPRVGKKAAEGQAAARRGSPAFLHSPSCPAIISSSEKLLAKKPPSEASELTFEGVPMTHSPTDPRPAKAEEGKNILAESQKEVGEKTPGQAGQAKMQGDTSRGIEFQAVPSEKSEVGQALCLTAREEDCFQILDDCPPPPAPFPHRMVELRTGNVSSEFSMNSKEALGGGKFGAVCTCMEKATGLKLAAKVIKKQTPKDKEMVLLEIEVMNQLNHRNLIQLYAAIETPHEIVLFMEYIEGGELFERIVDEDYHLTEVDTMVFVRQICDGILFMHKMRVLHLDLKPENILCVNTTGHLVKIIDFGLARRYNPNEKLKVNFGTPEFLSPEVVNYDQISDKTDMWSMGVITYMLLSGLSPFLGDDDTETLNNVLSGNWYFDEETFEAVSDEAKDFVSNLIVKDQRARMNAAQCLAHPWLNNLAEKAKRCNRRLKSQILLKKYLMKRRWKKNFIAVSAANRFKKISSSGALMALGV
T4 sequence (P53779 whole entry): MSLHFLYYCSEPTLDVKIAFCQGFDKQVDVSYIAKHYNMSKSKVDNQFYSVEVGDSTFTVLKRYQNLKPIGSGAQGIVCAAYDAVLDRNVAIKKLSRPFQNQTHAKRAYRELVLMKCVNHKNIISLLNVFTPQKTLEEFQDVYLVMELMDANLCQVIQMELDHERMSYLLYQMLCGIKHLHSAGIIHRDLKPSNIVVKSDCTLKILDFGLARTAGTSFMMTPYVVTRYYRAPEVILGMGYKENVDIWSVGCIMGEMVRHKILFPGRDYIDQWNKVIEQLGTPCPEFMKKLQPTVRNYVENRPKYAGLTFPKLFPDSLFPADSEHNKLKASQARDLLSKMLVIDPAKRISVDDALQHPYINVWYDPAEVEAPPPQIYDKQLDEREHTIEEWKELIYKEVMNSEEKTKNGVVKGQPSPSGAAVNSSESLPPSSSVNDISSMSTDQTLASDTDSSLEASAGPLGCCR
ERK1, sequence (P27361 whole entry): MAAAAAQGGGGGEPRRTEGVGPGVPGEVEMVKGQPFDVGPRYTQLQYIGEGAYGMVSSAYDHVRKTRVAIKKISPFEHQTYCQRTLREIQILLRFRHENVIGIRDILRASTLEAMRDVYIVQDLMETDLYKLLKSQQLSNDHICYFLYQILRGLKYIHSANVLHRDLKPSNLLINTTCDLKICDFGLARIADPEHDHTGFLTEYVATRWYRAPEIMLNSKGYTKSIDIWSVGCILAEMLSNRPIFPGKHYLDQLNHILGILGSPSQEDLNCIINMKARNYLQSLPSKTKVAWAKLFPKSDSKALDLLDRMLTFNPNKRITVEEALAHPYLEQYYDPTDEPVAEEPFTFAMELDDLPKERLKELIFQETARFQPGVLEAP
T6 sequence (Q16816 whole entry): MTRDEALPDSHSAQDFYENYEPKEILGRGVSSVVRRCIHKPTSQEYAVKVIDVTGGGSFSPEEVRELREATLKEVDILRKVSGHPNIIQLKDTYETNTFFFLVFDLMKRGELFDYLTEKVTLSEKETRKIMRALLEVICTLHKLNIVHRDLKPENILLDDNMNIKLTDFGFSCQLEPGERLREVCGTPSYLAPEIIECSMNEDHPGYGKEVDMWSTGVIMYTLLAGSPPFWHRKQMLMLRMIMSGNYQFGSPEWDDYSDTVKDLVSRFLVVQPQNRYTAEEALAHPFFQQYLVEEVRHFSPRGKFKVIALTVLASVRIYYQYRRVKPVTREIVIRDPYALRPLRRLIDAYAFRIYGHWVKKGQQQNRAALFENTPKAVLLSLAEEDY
T9 sequence (P49674 whole entry): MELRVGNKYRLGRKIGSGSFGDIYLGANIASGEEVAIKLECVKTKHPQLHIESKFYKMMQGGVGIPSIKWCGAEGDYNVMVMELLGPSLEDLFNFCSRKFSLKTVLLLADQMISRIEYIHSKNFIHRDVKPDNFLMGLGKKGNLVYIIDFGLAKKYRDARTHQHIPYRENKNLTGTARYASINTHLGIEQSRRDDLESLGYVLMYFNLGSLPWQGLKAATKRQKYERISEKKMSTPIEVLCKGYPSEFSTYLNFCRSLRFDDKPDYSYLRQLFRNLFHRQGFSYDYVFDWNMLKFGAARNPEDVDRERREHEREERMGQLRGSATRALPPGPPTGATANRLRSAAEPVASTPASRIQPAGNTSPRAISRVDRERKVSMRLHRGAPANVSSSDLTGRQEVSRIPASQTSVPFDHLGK
T2 sequence (P08069 31-1367): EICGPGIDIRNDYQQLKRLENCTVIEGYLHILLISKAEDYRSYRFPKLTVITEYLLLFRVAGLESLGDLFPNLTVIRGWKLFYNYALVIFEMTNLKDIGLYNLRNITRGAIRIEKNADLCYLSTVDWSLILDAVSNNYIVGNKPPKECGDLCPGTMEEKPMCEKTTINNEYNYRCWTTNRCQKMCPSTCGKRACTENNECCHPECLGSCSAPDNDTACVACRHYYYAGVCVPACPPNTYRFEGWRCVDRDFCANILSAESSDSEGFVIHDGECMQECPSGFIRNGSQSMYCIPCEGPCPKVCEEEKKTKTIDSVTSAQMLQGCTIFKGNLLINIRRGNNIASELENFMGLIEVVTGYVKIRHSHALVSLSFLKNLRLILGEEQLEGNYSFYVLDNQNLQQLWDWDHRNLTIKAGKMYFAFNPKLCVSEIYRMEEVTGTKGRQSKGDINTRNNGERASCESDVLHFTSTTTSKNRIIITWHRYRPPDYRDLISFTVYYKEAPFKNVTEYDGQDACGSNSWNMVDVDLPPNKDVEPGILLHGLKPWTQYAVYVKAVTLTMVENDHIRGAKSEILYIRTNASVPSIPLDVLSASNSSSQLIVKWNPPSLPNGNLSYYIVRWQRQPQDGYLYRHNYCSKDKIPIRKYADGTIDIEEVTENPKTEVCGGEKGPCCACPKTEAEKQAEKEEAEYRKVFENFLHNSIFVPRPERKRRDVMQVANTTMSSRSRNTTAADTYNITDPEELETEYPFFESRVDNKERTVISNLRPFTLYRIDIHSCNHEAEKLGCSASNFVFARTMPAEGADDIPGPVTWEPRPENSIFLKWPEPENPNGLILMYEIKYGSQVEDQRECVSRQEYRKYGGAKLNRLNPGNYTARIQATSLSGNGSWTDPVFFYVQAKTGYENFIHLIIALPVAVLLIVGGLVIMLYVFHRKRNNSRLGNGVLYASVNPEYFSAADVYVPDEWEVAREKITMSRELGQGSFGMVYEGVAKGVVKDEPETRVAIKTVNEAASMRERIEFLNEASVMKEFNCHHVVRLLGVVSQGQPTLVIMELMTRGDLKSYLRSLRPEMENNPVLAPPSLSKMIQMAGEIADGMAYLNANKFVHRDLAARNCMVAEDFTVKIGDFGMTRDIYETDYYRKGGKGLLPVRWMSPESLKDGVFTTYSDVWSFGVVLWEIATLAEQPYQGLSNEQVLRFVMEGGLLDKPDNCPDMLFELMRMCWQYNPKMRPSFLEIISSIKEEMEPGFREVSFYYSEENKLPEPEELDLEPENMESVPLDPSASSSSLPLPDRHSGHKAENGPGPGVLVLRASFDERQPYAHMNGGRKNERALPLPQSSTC
T7 sequence (Q15759 whole entry): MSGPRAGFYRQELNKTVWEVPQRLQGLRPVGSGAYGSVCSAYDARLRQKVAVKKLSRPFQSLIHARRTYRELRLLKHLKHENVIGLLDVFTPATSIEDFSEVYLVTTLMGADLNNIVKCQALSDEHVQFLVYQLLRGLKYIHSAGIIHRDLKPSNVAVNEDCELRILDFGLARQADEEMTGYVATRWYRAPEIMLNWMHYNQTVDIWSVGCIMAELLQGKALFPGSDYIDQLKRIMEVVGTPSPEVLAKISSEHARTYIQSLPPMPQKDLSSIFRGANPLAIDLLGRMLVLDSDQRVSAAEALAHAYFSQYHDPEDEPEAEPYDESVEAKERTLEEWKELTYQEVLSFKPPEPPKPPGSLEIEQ
T1 sequence (P09619 33-1106): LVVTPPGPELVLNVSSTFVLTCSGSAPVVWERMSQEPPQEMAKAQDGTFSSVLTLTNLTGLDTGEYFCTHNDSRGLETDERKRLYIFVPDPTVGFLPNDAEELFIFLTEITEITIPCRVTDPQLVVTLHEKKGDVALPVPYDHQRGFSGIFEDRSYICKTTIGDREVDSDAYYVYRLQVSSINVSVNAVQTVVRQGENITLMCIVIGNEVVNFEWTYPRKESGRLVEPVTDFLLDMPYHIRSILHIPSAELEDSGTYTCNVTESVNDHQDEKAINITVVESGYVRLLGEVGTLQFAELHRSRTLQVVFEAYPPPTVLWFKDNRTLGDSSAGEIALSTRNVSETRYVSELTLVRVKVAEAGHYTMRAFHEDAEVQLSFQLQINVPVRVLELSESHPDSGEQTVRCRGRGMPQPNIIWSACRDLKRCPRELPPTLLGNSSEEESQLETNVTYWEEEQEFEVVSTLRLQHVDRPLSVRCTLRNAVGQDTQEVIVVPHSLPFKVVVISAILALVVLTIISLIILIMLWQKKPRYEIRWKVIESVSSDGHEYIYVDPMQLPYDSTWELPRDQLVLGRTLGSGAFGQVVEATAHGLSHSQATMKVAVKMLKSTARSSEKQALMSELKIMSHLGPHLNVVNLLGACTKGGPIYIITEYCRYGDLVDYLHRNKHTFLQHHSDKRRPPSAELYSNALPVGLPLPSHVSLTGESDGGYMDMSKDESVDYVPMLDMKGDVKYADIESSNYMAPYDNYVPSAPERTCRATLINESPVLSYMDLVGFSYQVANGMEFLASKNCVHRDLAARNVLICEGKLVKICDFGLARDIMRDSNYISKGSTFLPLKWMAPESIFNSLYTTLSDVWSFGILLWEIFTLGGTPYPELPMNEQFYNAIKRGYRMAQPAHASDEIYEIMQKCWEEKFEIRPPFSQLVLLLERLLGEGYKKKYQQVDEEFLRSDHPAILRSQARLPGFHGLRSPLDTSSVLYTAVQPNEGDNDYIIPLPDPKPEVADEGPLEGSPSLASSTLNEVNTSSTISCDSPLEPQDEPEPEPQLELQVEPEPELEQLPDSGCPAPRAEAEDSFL

SMILES: C=CC(=O)N1CCC([C@@H]2CCNc3c(C(N)=O)c(-c4ccc(Oc5ccccc5)cc4)nn32)CC1 [zanubrutinib]
- Percentage inhibition of kinase enzyme activity (PDGFRβ): 5.37%
- Percentage inhibition of kinase enzyme activity (IGF1R): 4.03%

SMILES: CC#CC(=O)N1CCC[C@H]1c1nc(-c2ccc(C(=O)Nc3ccccn3)cc2)c2c(N)nccn12 [acalabrutinib]
- Percentage inhibition of kinase enzyme activity (IKKβ): -6.98%
- Percentage inhibition of kinase enzyme activity (ERK1): -2.38%
- Percentage inhibition of kinase enzyme activity (JNK3): -0.89%
- Percentage inhibition of kinase enzyme activity (PBK): -15.29%
- Percentage inhibition of kinase enzyme activity (PHKG1): -4.16%
- Percentage inhibition of kinase enzyme activity (p38β): -3.08%
- Percentage inhibition of kinase enzyme activity (PDGFRβ): 5.36%
- Percentage inhibition of kinase enzyme activity (IGF1R): 0.47%
- Percentage inhibition of kinase enzyme activity (skMLCK): -17.48%
- Percentage inhibition of kinase enzyme activity (CK1ε): -10.49%
- Percentage inhibition of kinase enzyme activity (TSSK3): -7.85%

SMILES: COc1ccc(F)cc1C(=O)NCc1ccc(-c2nn([C@@H](C)C(F)(F)F)c(N)c2C(N)=O)cc1 [pirtobrutinib]
- Percentage inhibition of kinase enzyme activity (IKKβ): 0.58%
- Percentage inhibition of kinase enzyme activity (ERK1): -1.16%
- Percentage inhibition of kinase enzyme activity (JNK3): 0.49%
- Percentage inhibition of kinase enzyme activity (PBK): -3.79%
- Percentage inhibition of kinase enzyme activity (PHKG1): 4.81%
- Percentage inhibition of kinase enzyme activity (p38β): 2.61%
- Percentage inhibition of kinase enzyme activity (PDGFRβ): 5.87%
- Percentage inhibition of kinase enzyme activity (IGF1R): 0.28%
- Percentage inhibition of kinase enzyme activity (skMLCK): -3.69%
- Percentage inhibition of kinase enzyme activity (CK1ε): 15.87%
- Percentage inhibition of kinase enzyme activity (TSSK3): -1.40%

SMILES: O=C(c1ccc(Oc2ccccc2)cc1Cl)c1c[nH]c2ncnc(N[C@@H]3CC[C@@H](CO)OC3)c12 [nemtabrutinib]
- Percentage inhibition of kinase enzyme activity (IKKβ): -1.18%
- IC50 (ERK1): 543 nM
- Inhibition of ERK1 (ERK1): did not inhibit
- Percentage inhibition of kinase enzyme activity (ERK1): 61.74%
- Percentage inhibition of kinase enzyme activity (JNK3): -2.93%
- Percentage inhibition of kinase enzyme activity (PBK): -7.49%
- Percentage inhibition of kinase enzyme activity (PHKG1): 7.46%
- Percentage inhibition of kinase enzyme activity (p38β): 12.08%
- Percentage inhibition of kinase enzyme activity (PDGFRβ): 76.83%
- Percentage inhibition of kinase enzyme activity (IGF1R): 99.20%
- Percentage inhibition of kinase enzyme activity (skMLCK): 2.60%
- Percentage inhibition of kinase enzyme activity (CK1ε): 95.45%
- Percentage inhibition of kinase enzyme activity (TSSK3): 2.56%

SMILES: C=CC(=O)N1CCC[C@@H](n2nc(-c3ccc(Oc4ccccc4)cc3)c3c(N)ncnc32)C1 [ibrutinib]
- Percentage inhibition of kinase enzyme activity (IKKβ): -0.35%
- Percentage inhibition of kinase enzyme activity (ERK1): 1.74%
- Percentage inhibition of kinase enzyme activity (JNK3): 0.98%
- Percentage inhibition of kinase enzyme activity (PBK): -9.30%
- Percentage inhibition of kinase enzyme activity (PHKG1): 1.53%
- Percentage inhibition of kinase enzyme activity (p38β): 9.06%
- Percentage inhibition of kinase enzyme activity (PDGFRβ): 54.81%
- Percentage inhibition of kinase enzyme activity (IGF1R): 7.45%
- Percentage inhibition of kinase enzyme activity (skMLCK): -16.74%
- Percentage inhibition of kinase enzyme activity (CK1ε): 49.55%
- Percentage inhibition of kinase enzyme activity (TSSK3): -3.87%
